Earlier results in patent US4535081A, “Antiallergic and antiulcer 1-oxo-1H-thiazolo[3,2-a]pyrimidine-2-carboxamides and intermediates therefor” (Pfizer Inc., priority 1983, dated 1985).

Legend:
[1] = test system: gastric ulcers; conditions: literature; cited from earlier work
[2] = test system: gastric acid secretion; conditions: literature; cited from earlier work

SMILES | effect on gastric ulcers [1] | effect on ulcers / gastric acid secretion [2]
CC1(C)[C@@H](OC(=O)CCC(=O)O)CC[C@]2(C)[C@H]3C(=O)C=C4[C@@H]5C[C@@](C)(C(=O)O)CC[C@]5(C)CC[C@@]4(C)[C@]3(C)CC[C@@H]12 [carbenoxolone sodium] | prevent formation of and to accelerate healing of gastric ulcers in animals, including humans | –
CN/C(=N/CCSCc1nc[nH]c1C)NC#N [cimetidine] | – | alleviates ulcers by reducing gastric acid secretion
